Assay results from ChEMBL document CHEMBL1132916, “Total synthesis of pyrrolizidines 223H', 239K', 265H', and 267H' found in Madagascan frogs (Mantella) and their affinities for nicotinic acetylcholine receptor” (Bioorg Med Chem Lett, 2000).

What follows are molecules tested against Acetylcholine receptor (Torpedo californica, UniProt P02710+P02712+P02714+P02718) (assay: Compound was evaluated for inhibition of [3H]TCP binding to Nicotinic acetylcholine receptor of Torpedo californica).
Assay type: protein-complex assay, Tetronarce californica

Acetylcholine receptor, sequence (P02710 whole entry): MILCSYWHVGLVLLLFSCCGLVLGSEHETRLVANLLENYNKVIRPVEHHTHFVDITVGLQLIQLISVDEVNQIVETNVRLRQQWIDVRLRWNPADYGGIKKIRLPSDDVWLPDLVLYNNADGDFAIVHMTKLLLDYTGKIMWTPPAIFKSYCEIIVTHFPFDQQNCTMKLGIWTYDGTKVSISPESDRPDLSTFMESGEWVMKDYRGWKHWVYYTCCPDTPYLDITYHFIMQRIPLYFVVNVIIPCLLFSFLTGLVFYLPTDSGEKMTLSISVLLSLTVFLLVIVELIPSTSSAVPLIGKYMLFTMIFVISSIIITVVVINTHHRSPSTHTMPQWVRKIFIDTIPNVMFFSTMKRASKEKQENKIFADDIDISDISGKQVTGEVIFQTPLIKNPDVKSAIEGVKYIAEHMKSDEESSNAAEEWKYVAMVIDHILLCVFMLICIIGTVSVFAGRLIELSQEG
Acetylcholine receptor, sequence (P02712 whole entry): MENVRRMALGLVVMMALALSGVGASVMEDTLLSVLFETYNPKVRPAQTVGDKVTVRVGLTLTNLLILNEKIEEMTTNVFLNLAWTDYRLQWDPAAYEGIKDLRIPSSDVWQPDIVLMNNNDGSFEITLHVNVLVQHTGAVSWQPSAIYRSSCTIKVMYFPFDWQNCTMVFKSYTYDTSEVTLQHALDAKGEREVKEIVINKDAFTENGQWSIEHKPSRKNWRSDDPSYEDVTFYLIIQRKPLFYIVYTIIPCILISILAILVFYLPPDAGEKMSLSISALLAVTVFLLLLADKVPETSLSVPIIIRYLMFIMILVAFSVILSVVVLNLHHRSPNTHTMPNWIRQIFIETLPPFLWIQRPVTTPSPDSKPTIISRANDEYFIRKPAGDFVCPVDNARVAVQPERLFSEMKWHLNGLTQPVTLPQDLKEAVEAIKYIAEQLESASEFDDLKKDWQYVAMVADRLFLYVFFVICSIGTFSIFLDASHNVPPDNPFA
Acetylcholine receptor, sequence (P02718 whole entry): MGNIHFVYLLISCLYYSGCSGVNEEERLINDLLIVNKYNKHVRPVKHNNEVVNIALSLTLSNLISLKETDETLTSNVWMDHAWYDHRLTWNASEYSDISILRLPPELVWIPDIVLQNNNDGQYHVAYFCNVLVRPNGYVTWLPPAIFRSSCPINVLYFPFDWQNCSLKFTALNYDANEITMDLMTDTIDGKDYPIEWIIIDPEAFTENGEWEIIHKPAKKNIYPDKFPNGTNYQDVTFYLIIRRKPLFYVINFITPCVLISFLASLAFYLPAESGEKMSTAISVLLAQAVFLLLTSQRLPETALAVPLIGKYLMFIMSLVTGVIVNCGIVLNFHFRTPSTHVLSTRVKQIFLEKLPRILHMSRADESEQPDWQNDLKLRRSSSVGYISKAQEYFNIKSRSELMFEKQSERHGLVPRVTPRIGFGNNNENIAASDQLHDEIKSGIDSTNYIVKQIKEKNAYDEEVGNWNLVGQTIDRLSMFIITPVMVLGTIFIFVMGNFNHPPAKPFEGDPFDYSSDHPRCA
Acetylcholine receptor, sequence (P02714 whole entry): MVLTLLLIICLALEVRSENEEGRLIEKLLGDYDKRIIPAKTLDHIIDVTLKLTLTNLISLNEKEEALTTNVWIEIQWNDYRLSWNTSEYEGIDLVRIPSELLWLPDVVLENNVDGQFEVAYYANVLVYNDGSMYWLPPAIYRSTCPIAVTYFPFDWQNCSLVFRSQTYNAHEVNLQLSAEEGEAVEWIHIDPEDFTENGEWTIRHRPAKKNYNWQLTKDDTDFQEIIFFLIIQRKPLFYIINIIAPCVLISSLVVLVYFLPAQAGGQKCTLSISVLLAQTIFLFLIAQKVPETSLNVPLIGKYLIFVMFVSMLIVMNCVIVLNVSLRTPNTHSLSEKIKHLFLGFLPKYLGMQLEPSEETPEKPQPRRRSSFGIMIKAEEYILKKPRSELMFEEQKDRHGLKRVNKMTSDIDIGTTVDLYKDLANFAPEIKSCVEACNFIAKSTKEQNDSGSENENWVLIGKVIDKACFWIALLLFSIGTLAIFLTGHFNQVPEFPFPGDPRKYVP

SMILES | Ki [µM]
CCCCCCC[C@@H]1CC[C@H]2CC[C@H](C)N12 | 50
C[C@H](O)CCCCC[C@@H]1CC[C@H]2CC[C@H](C)N12 | 3300
CCCC[C@@H]1CCCC2CC[C@@H](CCCC)N21 (stereo partly drawn) | 420
C[C@@H](O)CCCCC[C@@H]1CC[C@H]2CC[C@H](C)N12 | 8300
CCC[C@H]1CC[C@@H]2CC[C@@H](CCCCC[C@@H](C)O)N21 | 3100
CCCC[C@H]1CCCC2CC[C@@H](CCCC)N21 (stereo partly drawn) | 370
CCC[C@H]1CC[C@@H]2CC[C@@H](CCCCC[C@H](C)O)N21 | 3100
CCC[C@H]1CC[C@@H]2CC[C@@H](CCCCCC(C)=O)N21 | 830
